Data as given in patent US5386030A, “Antiviral (phosphonomethoxy)methoxy purine/pyrimidine derivatives” (Institute of Organic Chemistry and Biochemistry of the …, priority 1993, dated 1995).
Values after ≈ are worked out from the molar mass of the structure shown. Where a name gives a salt, the structure may show the parent alone. Read-outs that look alike come from different tables or passages of the source.

Legend:
[1] = tested on: HSV-2; experiment: plaque reduction assay, HSV-2 (vero cells); type: cell-based, herpes simplex virus II; conditions: for IC50: 48 h
Description: (§1) Herpes simplex virus (HSV) strains were grown and titered at 37° C. in vero cells (African Green Monkey Kidney cells) and used for virus work before the tenth passage.
(§2) Cells were grown and maintained in Earle's Minimum Essential Medium (EMEM), Gibco Laboratories, supplemented with 0.75% sodium bicarbonate, 2 mM 1-glutamine, Pen-strep. and 5-10% fetal calf serum.
(§3) The titer of HSV strains is determined by a plaque titration method (Roizman and Roane, Virology, 115: 75-79, 1961). Tissue culture 24-well petri dishes are seeded with cells and used for assays when approximately 75% monolayer. Volumes (0.1 ml) of logarithmic dilutions of the virus strain are inoculated onto each of triplicate wells, and absorbed for one hour with intermittent shaking. The inoculum thereafter is removed, and 1 ml of 5-10% EMEM containing 0.3% human immune serum globulin is added. After a 48 hour incubation period at 37° C. in a 5% CO2 atmosphere, the overlay medium is removed and the cell sheets stained with Giemsa stain. The number of plaques is counted, the triplicate is averaged, and the number of plaque-forming units per ml is calculated.
(§4) The compounds are tested for activity against the herpes simplex stains using a stock solution of each compound freshly prepared. Appropriate dilution of each compound are made in 10% EMEM before usage. The antiviral efficacy of each compound is determined using the plaque reduction assay described above. Briefly, tissue culture 24-well plates, with approximately 50 plaque forming units of HSV per 0.1 ml, and the virus absorbed for 1 hour, with intermittent shaking. After removal of the inoculum, 1 ml of 10% EMEM containing two-fold dilutions of the appropriate drug are added in triplicates. Triplicate wells/plate receives no drug and are used as a virus control. After a 48-hour incubation period, at 37° C. in a 5% CO2 atmosphere, the overlay medium is removed, the cells are stained as described above, and plaques are counted. The counts of triplicate wells are averaged, and the number of plaques in the presence of each drug dilution are calculated.
(§5) The antiviral potency of the drug is determined by ID50, the drug concentration necessary to reduce the number of plaques by 50% of those in the virus control cultures.

[2] = tested on: HSV-1; experiment: plaque reduction assay, HSV-1 (vero cells); type: cell-based, herpes simplex virus I; conditions: for IC50: 48 h, read-out: ID50 HSV-1
Description: as §1, §2, §3
as §4, with “calculated. […]” for “calculated.”

[3] = tested on: HCMV; experiment: plaque reduction assay, HCMV strain AD169 (MRC-5 cells); type: cell-based, Human cytomegalovirus (strain AD169); conditions: for IC50: read-out: ID50 HCMV
Description: as §4
Human cytomegalovirus (HCMV) (strain AD169) was grown and titered at 37° C. in human embryonic lung (diploid) cells, MRC-5. The activity of compounds against HCMV was determined by using the procedure for the plaque reduction assay described above.
as §5

[4] = tested on: MuLV; experiment: UV-XC plaque assay, MuLV (SC-1 cells); type: cell-based, murine leukemia virus; conditions: for IC50: Murine leukemia virus
Description: The compounds were evaluated for antiviral activity against murine leukemia virus (MuLV) strains using the UV-XC plaque assay (Rowe, et al., Virology, 42: 1136, 1970).
The MuLV strains were grown in feral mouse cells (SC-1) and used for antiviral tests using the UV-XC plaque assay. Briefly, SC-1 cells are grown as monolayers in 4-well tissue culture plates and inoculated with approximately 50-100 plaque forming units of MuLV in 0.5 ml of 5% EMEM containing 20 μg/ml DEAE/Dextran. After 1 hour adsorption, the inoculum is removed and 5 ml of 5% EMEM containing three-fold dilutions of the appropriate drug are added. Five days later, the cultures are UV-irradiated with an ultraviolet lamp and rat XC sarcoma cells are added to the cultures. Three-four days after UV-irradiation, the cell cultures are stained with Giemsa stain and the plaques are enumerated. Antiviral activity is expressed in terms of the reduction in the mean number of UV-XC plaques counted in the drug treated, virus-infected cultures compared with mean number of plaques counted in untreated, virus-infected control cultures.
as §5

[5] = tested on: herpes simples virus-2; experiment: survival of mice inoculated with herpes simplex virus-2; type: in vivo
Description: A preferred example of one of these compounds, known as (S)-HPMPA (Formula V) was disclosed by DeClercq, et al., in Nature, 323: 464-467 (1986) and earlier by Holy, et al, Nucleic Acids Research, Symposium Series No. 14, pp. 277-278 (1984). Phosphonate compounds which are HPMPA analogs are described in South African Patent 1987/8607. […] In a 21 day protocol 30% of a group of animals treated i.p. with 50 mg/kg/day of (S)-HPMPA survived. [drawing 5]

[6] = Human alphaherpesvirus 2, Table 2, drug concentration reducing plaques by 50%, vero cells, read-out: ID50 HSV-2
[7] = SC1, Table 2, UV-XC plaque assay, SC-1 cells, read-out: ID50 MULV
[8] = Human betaherpesvirus 5, MRC5, 48 h, Table 2, strain AD169, MRC-5 cells

## N.Nc1nc2c(ncn2OCOCP(=O)(O)O)c(=O)[nH]1 [Compound 14, 9-[(Phosphonomethoxy)methoxy]guanine ammonium salt]
[1]
  HSV-2 activity (in words): comparable to acyclovir (ACV)
[1]; Human alphaherpesvirus 2, Vero, read-out: ID50 HSV2
  IC50: 1.3 µg/mL
[2]; Human alphaherpesvirus 1, Vero
  IC50: 2.2 µg/mL
[2]; compared with ACV
  HSV-1 activity (in words): comparable to acyclovir (ACV)
[3]; Human betaherpesvirus 5, AD169, MRC5, 48 h
  IC50: 0.2 µg/mL

## N.Nc1ncnc2c1ncn2OCOCP(=O)(O)O [Compound 4, 9-[(Phosphonomethoxy)methoxy]adenine ammonium salt]
[1]
  HSV-2 activity (in words): little activity
[1]; Human alphaherpesvirus 2, Vero, read-out: ID50 against HSV-2
  IC50: > 100 µg/mL
[4]
  activity against MuLV (in words): good activity
[4]; SC-1, read-out: ID50 against MuLV
  IC50: 1.5 µg/mL

## Nc1nc2c(ncn2COCCO)c(=O)[nH]1 [ACV, acyclovir, reference compound]
[1]; Human alphaherpesvirus 2, Table 1, drug concentration reducing plaques by 50%, vero cells, read-out: ID50 HSV2
  IC50: 0.7 µg/mL (≈ 3.11 µM)
[1]; [6]
  IC50: 0.35 µg/mL (≈ 1.55 µM)
[2]; Human alphaherpesvirus 1, Table 1, drug concentration reducing plaques by 50%, vero cells
  IC50: 0.6 µg/mL (≈ 2.66 µM)
[3]; Human betaherpesvirus 5, MRC5, 48 h, Table 1, strain AD169, MRC-5 cells
  IC50: 40 µg/mL (≈ 178 µM)
[4]; [7]
  IC50: > 100 µg/mL

## Nc1ncnc2c1ncn2C[C@@H](CO)OCP(=O)(O)O [(S)-HPMPA]
[5]; HSV-2, i.p., 50 mg/kg/day, 21 day protocol
  animals survived: 30%
[5]; HSV-2, in applicant's hands
  activity in mice inoculated with herpes simplex virus-2 (in words): only slightly active

## Nc1nc2c(ncn2COC(CO)CO)c(=O)[nH]1 [DHPG, reference compound]
[1]; [6]
  IC50: 0.2 µg/mL (≈ 0.784 µM)
[3]; [8]
  IC50: 0.4 µg/mL (≈ 1.57 µM)
[4]; [7]
  IC50: > 100 µg/mL

## Nc1ncnc2c1ncn2OC(CO)OCP(=O)(O)O (centres unmarked) [Compound 21, ammonium salt]
[1]; [6]
  IC50: 2.6 µg/mL
[3]; [8]
  IC50: 1 µg/mL
[3]; compared with DHPG
  HCMV activity (in words): comparable to DHPG
[4]; [7]
  IC50: 1.5 µg/mL
